Test results published in patent publication US5304474A, “Hydrophobic peptide esters and amides” (Board of Regents, The University of Texas System, priority 1991, dated 1994).
Like-named read-outs stand apart in the source and are kept apart here. Peptide text beside a SMILES is read from it.

What was measured:
[1] = Activity and appearance of mice post-injection; format: in vivo, C3H/HeJ mice; conditions: 15-30 minutes post-injection, about 1×10^-3 moles per kg tail-vein
Protocol: (§1) Leu-Leu-OMe or Leu-Phe-OMe were suspended in PBS, pH 7.4. Then individual C3H/HeJ mice (25 gram size) were administered by tail-vein injection either 2.5×10^-5 moles (6.5 mg) of Leu-Leu-OMe, 2.5×10^-5 moles (7.1 mg) Leu-Phe-OMe, or an equal volume of the PBS diluent, this dose being about 1×10^-3 moles per kg. […] Subsequent to this quiescent period no difference in activity or appearance in the mice was noted. Two hours post-injection, the mice were sacrificed and their spleen cells were assayed for NK function in a standard 4 hour assay against YAC-1 tumor targets. In all mice, total cell recovery ranged […] spleen cells per animal. […] Thus, Leu-Leu-OMe or Leu-Phe-OMe caused a greater than 75% decrease in splenic lytic activity against YAC-1 tumor targets.

[2] = system: [^3 H]Leu-Leu-OMe uptake by PBL (facilitated transport); test: Competitive inhibition of [3H]Leu-Leu-OMe uptake; format: cell-based, human; conditions: for inhibition at 250 µM: Homo sapiens, unlabeled compound 250 microM
Protocol: Human peripheral blood lymphocytes (PBL) were incubated in the presence of [^3 H]labeled Leu-Leu-OMe at 22° C. for varying lengths of time. The incubation mixture was then centrifuged through silicone oil to separate the cells from any unbound or non-internalized [^3 HLeu-Leu-OMe. […] At 37° C., levels of [^3 H]Leu-Leu-OMe accumulation by PBL were increased above those seen at 22° C. (see Table 4).

[3] = system: natural killer cells (NK); test: NK function: lysis of K562 target cells (51Cr release) after preincubation of lymphocytes with compound; conditions: for NK toxicity / effect on NK function, in words: lymphocytes exposed 15 minutes at room temperature (FIG. 4, FIG. 5)
Protocol: PBM were separated from heparinized venous blood of healthy donors by centrifugation over sodium diatrizoate-Ficoll gradients (Isolymph, Gallard-Schlesinger Chemical Mfg. Corp., Carle Place, N.Y.).
All cell exposures to the amino acids, dipeptides or their methyl esters were carried out by suspending cells in Dulbecco's phosphate buffered saline (PBS) and incubating them at room temperature with the reagent at the indicated concentration and time interval.
Percent of control cytotoxicity was calculated using the formula: [formula]

[4] = system: splenic NK function (YAC-1 tumor targets); test: Spleen cell NK function against YAC-1 after tail-vein injection; format: in vivo, C3H/HeJ mice
Protocol: as §1

[5] = system: natural killer cells (NK); conditions: previous experiments (Thiele et al. 1985); cited from earlier work
[6] = system: production of a TCA insoluble product from [^3 H]Leu-Leu-OMe; format: cell-based, human
Text: Iodoacetamide nonspecifically binds covalently to free sulfhydryl groups and thereby inhibits thiol protease function as well as other enzymatic reactions dependent on the presence of reduced sulfhydryl groups.

[7] = biological target: dipeptidyl peptidase I (DPPI) (Bos taurus, UniProt Q3ZCJ8); test: Dipeptidyl peptidase I catalyzed lysis of human RBC; format: cell-based, bovine; conditions: FIG. 12, FIG. 13
Protocol: The following experiments were carried out to determine whether DPPI could generate a lytic product from Leu-Leu-OMe. In the experiment detailed in FIG. 12, ^51 Cr-labeled human erythrocytes (RBC) were incubated with varying concentrations of Leu-Leu-OMe alone or in the presence of purified bovine DPPI.
In the experiments detailed in FIG. 13, ^51 Cr-labeled RBC's were exposed to various dipeptide esters or amides in the presence or absence of purified DPPI. […] The first observation is probably related to the inability of this enzyme to catalyze transpeptidation of peptide esters containing D-stereoisomers of amino acids. The latter observations are likely to be related to the fact that polymers of Ser-Leu or Leu-Tyr are not hydrophobic and therefore unlikely to enter and disrupt cell membranes.

Chain of dipeptidyl peptidase I (DPPI) (Q3ZCJ8 231-394 limits assumed): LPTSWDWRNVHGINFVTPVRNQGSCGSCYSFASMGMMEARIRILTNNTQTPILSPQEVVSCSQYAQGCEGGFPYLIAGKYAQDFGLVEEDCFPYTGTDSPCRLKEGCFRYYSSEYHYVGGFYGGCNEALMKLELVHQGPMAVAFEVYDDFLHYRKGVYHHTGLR
Chain of dipeptidyl peptidase I (DPPI) (Q3ZCJ8 25-134 limits assumed): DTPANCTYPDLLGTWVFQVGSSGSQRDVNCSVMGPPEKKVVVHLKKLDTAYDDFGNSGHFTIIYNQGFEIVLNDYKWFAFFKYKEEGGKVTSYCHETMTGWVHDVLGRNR
Chain of dipeptidyl peptidase I (DPPI) (Q3ZCJ8 395-463 limits assumed): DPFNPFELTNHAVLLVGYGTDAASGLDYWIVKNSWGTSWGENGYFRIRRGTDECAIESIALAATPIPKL

COC(=O)[C@H](Cc1ccccc1)NC(=O)[C@@H](N)CC(C)C [Leu-Phe-OMe] (H-Leu-Phe-OMe)
activity and appearance post-injection [1]: exhibited decreased activity and an apparent increase in sleep
inhibition at 250 µM ([2]; [3H]Leu-Leu-OMe 10 microM (Table 6)): 72%
NK Toxicity (LD50) ([3]; concentration which results in 50% loss of human NK function, PBL 15 minutes at 22° C.): 29 micro-M
NK toxicity / effect on NK function, in words [3]: produced concentration-dependent ablation of NK function at concentrations comparable to those at which Leu-Leu-OMe was active
Percent lysis of target cells ([4]; E:T 25:1, 2.5×10^-5 moles per mouse tail-vein, 2 hours post-injection, Control 8.29): 3.89%
Percent lysis of target cells ([4]; E:T 50:1, same dosing, Control 12.88): 4.68%
Percent lysis of target cells ([4]; E:T 100:1, same dosing, Control 20.60): 6.91%
Percent lysis of target cells ([4]; E:T 200:1, same dosing, Control 29.29): 11.91%
decrease in splenic lytic activity against YAC-1 tumor targets ([4]; about 1×10^-3 moles per kg tail-vein): greater than 75%

COC(=O)[C@@H](N)C(C)C [Val-OMe]
deletion of NK function from human PBM [5]: did not delete NK function from human PBM

NC(=O)CI [Iodoacetamide, iodoacetamide]
[^3 H]Leu--Leu--OMe Incorporation, 10% TCA Precipitate [6]: 243 + 16 cpm
[^3 H]Leu--Leu--OMe Incorporation, Initial [6]: 6,316 + 188 cpm
[^3 H]Leu--Leu--OMe Incorporation, 10% TCA Precipitate ([6]; Expt. 1, Cycloheximide 100 micro-g/ml, PMSF 1 micro-M, Iodoacetamide 0.5 micro-M, Nil 2,160 + 193): 140 + 5 cpm

COC(=O)[C@@H](CC(C)C)NC(=O)[C@H](N)CC(C)C [D-Leu-D-Leu-OMe]
competitive inhibition of [3H]Leu-Leu-OMe uptake, in words [2]: do not competitively inhibit PBL uptake of L-Leu-L-Leu-OMe
inhibition at 250 µM ([2]; [3H]Leu-Leu-OMe 10 microM (Table 5)): 7%
RBC lysis in the presence of purified DPPI, in words [7]: unable to produce a membrane active metabolite
effect on Leu-Leu-OMe mediated NK toxicity ([3]; added with Leu-Leu-OMe): had no effect on Leu-Leu-OMe mediated NK toxicity
NK toxicity / effect on NK function, in words [3]: had no inhibitory effect
